Data from ChEMBL document CHEMBL1909046, “DrugMatrix in vitro pharmacology data”.

Experiments:
[1] = DRUGMATRIX: GABAA, Flunitrazepam, Central radioligand binding (ligand: [3H] Flunitrazepam); format: cell membranes, Rattus norvegicus, Wistar, Brain, Membrane; details: Not Active = under 50% inhibition at 10 µM
[2] = target: T1, Alpha-1A adrenergic receptor (Rattus norvegicus, UniProt P43140); assay: DRUGMATRIX: Alpha-1A adrenergic receptor radioligand binding (ligand: prazosin); format: cell membranes, Wistar, Submaxillary gland, Membrane; details: Not Active = under 50% inhibition at 10 µM
T1 sequence (P43140 whole entry): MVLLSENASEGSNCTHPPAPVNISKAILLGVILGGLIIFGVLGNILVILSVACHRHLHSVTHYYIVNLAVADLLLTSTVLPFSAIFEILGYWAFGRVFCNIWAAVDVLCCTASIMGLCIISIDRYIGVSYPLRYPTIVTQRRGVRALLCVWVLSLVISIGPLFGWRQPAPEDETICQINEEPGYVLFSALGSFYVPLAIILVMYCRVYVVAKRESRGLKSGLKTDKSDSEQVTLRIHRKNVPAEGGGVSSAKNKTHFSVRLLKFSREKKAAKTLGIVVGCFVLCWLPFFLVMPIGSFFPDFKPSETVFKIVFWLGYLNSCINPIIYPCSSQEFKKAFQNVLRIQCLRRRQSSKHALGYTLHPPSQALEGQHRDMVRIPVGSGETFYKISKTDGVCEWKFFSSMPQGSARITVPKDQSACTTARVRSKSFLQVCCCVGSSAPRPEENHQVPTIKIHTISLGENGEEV

[3] = target: T2, Alpha-2A adrenergic receptor (Homo sapiens, UniProt P08913); format: cell membranes, Sf9, Membrane; further: in other assays of this panel Not Active means under 50% inhibition at 10 µM
T2 sequence (P08913 whole entry): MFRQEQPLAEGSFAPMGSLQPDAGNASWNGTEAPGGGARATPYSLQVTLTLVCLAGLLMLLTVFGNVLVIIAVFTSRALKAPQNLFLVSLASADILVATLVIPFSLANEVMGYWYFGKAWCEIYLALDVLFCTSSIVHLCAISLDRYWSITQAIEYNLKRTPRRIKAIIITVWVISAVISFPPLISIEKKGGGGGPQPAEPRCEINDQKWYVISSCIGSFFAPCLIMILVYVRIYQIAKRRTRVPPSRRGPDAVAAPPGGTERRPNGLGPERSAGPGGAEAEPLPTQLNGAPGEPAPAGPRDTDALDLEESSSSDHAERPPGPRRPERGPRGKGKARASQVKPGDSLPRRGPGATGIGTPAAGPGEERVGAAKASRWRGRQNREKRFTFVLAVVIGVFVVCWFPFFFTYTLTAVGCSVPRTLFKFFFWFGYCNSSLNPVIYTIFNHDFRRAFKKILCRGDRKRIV

[4] = target: Protein kinase C alpha type (Homo sapiens, UniProt P17252); format: cell-based; details: sf9;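 further: inhibition of PKCalpha kinase activity measured in an enzyme assay with histone as the phosphorylation substrate; in other assays of this panel Not Active means under 50% inhibition at 10 µM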
[5] = DRUGMATRIX: Calcium Channel Type L, Phenylalkylamine radioligand binding (ligand: [3H] (-)-Desmethoxyverapamil (D-888)); format: cell membranes, Rattus norvegicus, Wistar, Brain, Membrane; details: Not Active = under 50% inhibition at 10 µM
Endothelin-1 receptor = target: T3, Endothelin-1 receptor (Homo sapiens, UniProt P25101); format: cell membranes, Membrane; details: cho-k1; further: in other assays of this panel Not Active means under 50% inhibition at 10 µM
T3 sequence (P25101 whole entry): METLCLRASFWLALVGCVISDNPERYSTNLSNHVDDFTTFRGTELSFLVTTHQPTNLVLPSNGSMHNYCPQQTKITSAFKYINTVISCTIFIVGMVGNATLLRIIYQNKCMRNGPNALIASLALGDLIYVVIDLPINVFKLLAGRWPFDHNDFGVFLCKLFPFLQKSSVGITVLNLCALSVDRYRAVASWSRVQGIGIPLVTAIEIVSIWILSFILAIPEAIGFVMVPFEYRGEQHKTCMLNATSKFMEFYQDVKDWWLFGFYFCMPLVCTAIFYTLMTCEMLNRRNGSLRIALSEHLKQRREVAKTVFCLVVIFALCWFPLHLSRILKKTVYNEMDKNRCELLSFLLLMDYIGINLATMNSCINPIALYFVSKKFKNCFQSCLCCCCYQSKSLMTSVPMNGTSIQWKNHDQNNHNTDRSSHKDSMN

Molecule | IC50 [1] | Ki [1] | IC50 [2] | Ki [2] | IC50 ([3]; sf9) | Ki ([3]; sf9) | IC50 [4] | Ki [4] | IC50 [5] | Ki [5] | IC50 (Endothelin-1 receptor) | Ki (Endothelin-1 receptor) | IC50 ([3]; read-out: IC50) [nM] | Ki ([3]; read-out: Ki) [nM]
POVIDONE | Not Active | Not Active | Not Active | Not Active | Not Active | Not Active | Not Active | Not Active | Not Active | Not Active | Not Active | Not Active |  | 
C=CCO [ALLYL ALCOHOL] | Not Active | Not Active | Not Active |  | Not Active |  | Not Active |  | Not Active | Not Active | Not Active |  |  | 
CHROMIC CHLORIDE | Not Active | Not Active | Not Active | Not Active | Not Active | Not Active | Not Active | Not Active | Not Active | Not Active | Not Active | Not Active |  | 
Clc1cc(Cl)c(OCC#CI)cc1Cl [HALOPROGIN] | Not Active | Not Active | Not Active |  |  |  | Not Active |  | Not Active | Not Active | Not Active |  | 1220 | 458
C[N+](C)(C)CCOP(=O)([O-])OC[C@H](O)CO | Not Active | Not Active | Not Active |  | Not Active |  | Not Active |  | Not Active | Not Active | Not Active |  |  | 
COc1ccc(C[C@H](N)C(=O)N[C@H]2[C@@H](O)[C@H](n3cnc4c(N(C)C)ncnc43)O[C@@H]2CO)cc1 [PUROMYCIN] | Not Active | Not Active | Not Active |  | Not Active |  | Not Active |  | Not Active | Not Active | Not Active |  |  | 
ClC1=C(Cl)[C@]2(Cl)[C@@H]3[C@@H]4C[C@@H]([C@H]5O[C@@H]45)[C@@H]3[C@@]1(Cl)C2(Cl)Cl [DIELDRIN] | Not Active | Not Active | Not Active |  | Not Active |  | Not Active |  | Not Active | Not Active | Not Active |  |  | 
CARBOXYMETHYLCELLULOSE | Not Active | Not Active | Not Active | Not Active | Not Active | Not Active | Not Active | Not Active | Not Active | Not Active | Not Active | Not Active |  | 
NCC(CC(=O)O)c1ccc(Cl)cc1 (stereo not drawn) [BACLOFEN] | Not Active | Not Active | Not Active |  | Not Active |  | Not Active |  | Not Active | Not Active | Not Active |  |  | 
CN(CCOc1ccc(C[C@H](Nc2ccccc2C(=O)c2ccccc2)C(=O)O)cc1)c1ccccn1 | Not Active | Not Active | Not Active |  | Not Active |  | Not Active |  | Not Active | Not Active | Not Active |  |  | 
COPPER(II) OXIDE | Not Active | Not Active | Not Active | Not Active | Not Active | Not Active | Not Active | Not Active | Not Active | Not Active | Not Active | Not Active |  | 
Cl.NC[C@H]1CC[C@H](C(=O)Oc2ccc(CCC(=O)O)cc2)CC1 [CETRAXATE HYDROCHLORIDE] | Not Active | Not Active | Not Active |  | Not Active |  | Not Active |  | Not Active | Not Active | Not Active |  |  | 
